Molecular target: MAPK14 (human) (UniProt Q16539)
Assay: Inhibition of MAPK14 Kinase Activity

Sequence of MAPK14 (human) (Q16539 whole entry, looked up): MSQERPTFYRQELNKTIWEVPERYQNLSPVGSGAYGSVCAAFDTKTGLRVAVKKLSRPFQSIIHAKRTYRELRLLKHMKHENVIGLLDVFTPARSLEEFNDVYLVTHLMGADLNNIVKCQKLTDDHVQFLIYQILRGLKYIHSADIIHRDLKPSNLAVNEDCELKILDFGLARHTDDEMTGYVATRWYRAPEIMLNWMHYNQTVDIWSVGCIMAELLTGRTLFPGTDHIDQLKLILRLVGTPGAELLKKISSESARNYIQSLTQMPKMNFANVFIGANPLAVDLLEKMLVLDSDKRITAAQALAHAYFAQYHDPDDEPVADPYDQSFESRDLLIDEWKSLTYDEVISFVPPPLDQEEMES

SMILES	IC50 [nM]
COc1cccc(OC)c1C(=O)NCc1nc(-c2ccc(F)cc2)c(-c2nc(C(=O)NC(C)C)cs2)o1	≤ 1000
Cc1nc(-c2ccc(F)cc2)c(-c2nc(C(=O)NCCc3c[nH]c4ccccc34)cs2)s1	≤ 1000
Cc1nc(-c2ccc(F)cc2)c(-c2nc(C(=O)NCC3(O)CCCCC3)cs2)s1	≤ 1000
Cc1nc(-c2ccc(F)cc2)c(-c2nc(C(=O)N[C@@H](C)c3ccccc3)cs2)s1	≤ 1000
CC(C)NC(=O)c1csc(-c2c(-c3ccc(F)cc3)n[nH]c2C2CCN(C(=O)C(C)O)CC2)n1 (stereo not given)	≤ 1000
CC(C)NC(=O)c1csc(-c2oc(CN3CCN(C(=O)C=Cc4ccccc4O)CC3)nc2-c2ccc(F)cc2)n1	≤ 1000
Cc1onc(-c2ccc(Cl)cc2)c1-c1ccn(C(=O)NC2CCCC2)n1	≤ 1000
CC(C)NC(=O)c1csc(-c2oc(CNC(=O)c3cc(F)c(F)cc3[N+](=O)[O-])nc2-c2ccc(F)cc2)n1	≤ 1000
CC(C)NC(=O)c1csc(-c2oc(CNC(=O)C(C)(C)C)nc2-c2ccc(F)cc2)n1	≤ 1000
COCCNCc1nc(-c2ccc(F)cc2)c(-c2nc(C(=O)NC(C)C)cs2)o1	≤ 1000
CC(C)NC(=O)c1csc(-c2c(-c3ccc(F)cc3)noc2CNC(=O)c2ccc([N+](=O)[O-])cc2Cl)n1	≤ 1000
Cc1onc(-c2ccc(Cl)cc2)c1-c1cc(C)n(C(=O)NC(C)C)n1	≤ 1000
COc1ccccc1CC(=O)N1CCN(Cc2nc(-c3ccc(F)cc3)c(-c3nc(C(=O)NC(C)C)cs3)o2)CC1	≤ 1000
COc1cc(OC)c(C(=O)NCc2nc(-c3ccc(F)cc3)c(-c3nc(C(=O)NC(C)C)cs3)o2)c(OC)c1	≤ 1000
CCOC(=O)CC(=O)N1CCC(c2[nH]nc(-c3ccc(F)cc3)c2-c2nc(C(=O)NC(C)C)cs2)CC1	≤ 1000
CC(C)NC(=O)c1csc(-c2oc(CN3CCNCC3)nc2-c2ccc(F)cc2)n1	≤ 1000
Cc1nc(-c2ccc(F)cc2)c(-c2nc(C(=O)NC3CCC3)cs2)s1	≤ 1000
CC(C)NC(=O)c1csc(-c2oc(CNC(=O)c3cc(Br)ccc3Cl)nc2-c2ccc(F)cc2)n1	≤ 1000
Cc1nc(-c2ccc(F)cc2)c(-c2nc(C(=O)NCc3cccc(C(F)(F)F)c3)cs2)s1	≤ 1000
CC(C)NC(=O)c1csc(-c2oc(CNC(=O)c3ccc(F)cc3F)nc2-c2ccc(F)cc2)n1	≤ 1000
CC(C)NC(=O)c1csc(-c2c(-c3ccc(F)cc3)noc2CN)n1	≤ 1000
CC(C)NC(=O)c1csc(-c2c(-c3ccc(F)cc3)n[nH]c2C2CCN(C(=O)CO)CC2)n1	≤ 1000
Cc1onc(-c2ccc(Cl)cc2)c1-c1ccn(C(=O)NC(C)C)n1	≤ 1000

SMILES	IC50 [nM]
CC(C)NC(=O)c1csc(-c2oc(CN3CCN(C(=O)c4ccc(Cl)cc4O)CC3)nc2-c2ccc(F)cc2)n1	≤ 1000
CC(C)NC(=O)c1csc(-c2c(-c3ccc(F)cc3)noc2CNCCN2CCCC2)n1	≤ 1000
CC(C)NC(=O)c1csc(-c2oc(CNC(=O)c3ccccc3C(=O)c3ccc(O)cc3)nc2-c2ccc(F)cc2)n1	≤ 1000
Cc1cccc(N2CCN(C(=O)c3csc(-c4sc(C)nc4-c4ccc(F)cc4)n3)CC2C)c1 (stereo not given)	≤ 1000
CC(=O)NCC(=O)N1CCC(c2[nH]nc(-c3ccc(F)cc3)c2-c2nc(C(=O)NC(C)C)cs2)CC1	≤ 1000
Cc1nc(-c2ccc(F)cc2)c(-c2nc(C(=O)NCc3ccc(C)c(C)c3)cs2)s1	≤ 1000
CC(C)NC(=O)c1csc(-c2c(-c3ccc(F)cc3)n[nH]c2C2CCN(C(=O)C(O)CCl)CC2)n1 (stereo not given)	≤ 1000
Cc1nc(-c2ccc(F)cc2)c(-c2nc(C(=O)Nc3ccccc3-c3ccccc3)cs2)s1	≤ 1000
CC(C)NC(=O)c1csc(-c2oc(CNC(=O)c3ccc(C#N)cc3)nc2-c2ccc(F)cc2)n1	≤ 1000
CC(C)NC(=O)c1csc(-c2c(-c3ccc(F)cc3)n[nH]c2C2CCN(C(=O)C(C)(C)O)CC2)n1	≤ 1000
CC(=O)N1CCC(c2onc(-c3ccc(F)cc3)c2-c2nc(C(=O)NC(C)C)cs2)CC1	≤ 1000
CC(C)NC(=O)c1csc(-c2oc(CNC(=O)c3ccc(F)cc3Cl)nc2-c2ccc(F)cc2)n1	≤ 1000
CC(C)NC(=O)c1csc(-c2oc(CNC(=O)c3cccc(Cl)c3[N+](=O)[O-])nc2-c2ccc(F)cc2)n1	≤ 1000
CC(C)NC(=O)c1csc(-c2oc(CNCCc3ccc(O)cc3)nc2-c2ccc(F)cc2)n1	≤ 1000
CC(=O)NC(Cc1ccc(O)cc1)C(=O)NCc1nc(-c2ccc(F)cc2)c(-c2nc(C(=O)NC(C)C)cs2)o1 (stereo not given)	≤ 1000
CC(C)NC(=O)c1csc(-c2oc(CN3CCN(C(=O)C4CCCN4C(=O)OC(C)(C)C)CC3)nc2-c2ccc(F)cc2)n1 (stereo not given)	≤ 1000
CC(C)NC(=O)c1csc(-c2[nH][nH]c(=O)c2-c2ccc(F)cc2)n1	≤ 1000
Cc1nc(-c2ccc(F)cc2)c(-c2nc(C(=O)NCCc3ccc4c(c3)OCO4)cs2)s1	≤ 1000
CC(C)NC(=O)c1csc(-c2oc(CN3CCN(C(=O)c4cc(Cl)ccc4O)CC3)nc2-c2ccc(F)cc2)n1	≤ 1000
CC(C)NC(=O)c1csc(-c2c(-c3ccc(F)cc3)n[nH]c2C2CCN(C(=O)c3cccnc3Cl)CC2)n1	≤ 1000
CCCCCCCC(=O)NCc1nc(-c2ccc(F)cc2)c(-c2nc(C(=O)NC(C)C)cs2)o1	≤ 1000
CC(C)NC(=O)c1csc(-c2c(-c3ccc(F)cc3)n[nH]c2C2CCN(C(=O)c3cccc(O)c3)CC2)n1	≤ 1000
Cc1nc(-c2ccc(F)cc2)c(-c2nc(C(=O)NCc3ccccc3OC(F)(F)F)cs2)s1	≤ 1000

SMILES	IC50 [nM]
Cc1onc(-c2ccc(Cl)cc2)c1-c1ccn(C(=O)NC(C)CO)n1 (stereo not given)	≤ 1000
CC(C)NC(=O)c1csc(-c2c(-c3ccc(F)cc3)noc2CN(C)C)n1	≤ 1000
Cc1nc(-c2ccc(F)cc2)c(-c2nc(C(=O)NCCO)cs2)s1	≤ 1000
CC(C)NC(=O)c1csc(-c2oc(CN3CCN(C(=O)Cc4ccc(Br)cc4)CC3)nc2-c2ccc(F)cc2)n1	≤ 1000
CC(C)NC(=O)c1csc(-c2oc(CNC(=O)c3ccc(F)c([N+](=O)[O-])c3)nc2-c2ccc(F)cc2)n1	≤ 1000
CC(=O)C(=O)N1CCC(c2[nH]nc(-c3ccc(F)cc3)c2-c2nc(C(=O)NC(C)C)cs2)CC1	≤ 1000
CC(C)NC(=O)c1csc(-c2oc(CNC(=O)c3cc(O)ccc3O)nc2-c2ccc(F)cc2)n1	≤ 1000
CC(C)NC(=O)c1csc(-c2c(-c3ccc(F)cc3)n[nH]c2C2CCN(C(=O)C(F)(F)F)CC2)n1	≤ 1000
CC(C)NC(=O)c1csc(-c2oc(CNC(=O)CCc3cccc(C(F)(F)F)c3)nc2-c2ccc(F)cc2)n1	≤ 1000
Cc1nc(-c2ccc(F)cc2)c(-c2nc(C(=O)NCc3ccc(N(C)C)cc3)cs2)s1	≤ 1000
O=C(NC1CCCC1)c1csc(-c2c(-c3ccc(F)cc3)n[nH]c2C2CCNCC2)n1	≤ 1000
CC(C)NC(=O)c1csc(-c2oc(CN3CCN(C(=O)Cc4ccccc4O)CC3)nc2-c2ccc(F)cc2)n1	≤ 1000
Cc1nc(-c2ccc(F)cc2)c(-c2nc(C(=O)NC3CCCCCC3)cs2)s1	≤ 1000
CC1=C(CCC(=O)N2CCN(Cc3nc(-c4ccc(F)cc4)c(-c4nc(C(=O)NC(C)C)cs4)o3)CC2)C=CCO1	≤ 1000
Cc1nc(-c2ccc(F)cc2)c(-c2nc(C(=O)NCCCn3ccnc3)cs2)s1	≤ 1000
Cc1cc(C(=O)NCc2nc(-c3ccc(F)cc3)c(-c3nc(C(=O)NC(C)C)cs3)o2)n[nH]1	≤ 1000
Cc1nc(-c2ccc(F)cc2)c(-c2nc(C(=O)Nc3c(C)cccc3C(C)(C)C)cs2)s1	≤ 1000
CONC(=O)c1csc(-c2c(-c3ccc(F)cc3)n[nH]c2C2CCNCC2)n1	≤ 1000
CC(C)NC(=O)c1csc(-c2oc(CNC(=O)C3CCCO3)nc2-c2ccc(F)cc2)n1 (stereo not given)	≤ 1000
Cc1[nH]nc(-c2ccc(F)cc2)c1-c1nc(C(=O)NCc2ccccn2)cs1	≤ 1000
C#CCNC(=O)c1csc(-c2c(-c3ccc(F)cc3)ncn2C2CCNCC2)n1	≤ 1000
CC(C)NC(=O)c1csc(-c2oc(CNC(=O)c3ccc4cc(O)ccc4c3)nc2-c2ccc(F)cc2)n1	≤ 1000
CCNC(=O)c1csc(-c2c(-c3ccc(F)cc3)n[nH]c2C)n1	≤ 1000

SMILES	IC50 [nM]
CC(C)NC(=O)c1csc(-c2oc(CNC(=O)c3ccccc3C(F)(F)F)nc2-c2ccc(F)cc2)n1	≤ 1000
CC(C)NC(=O)c1csc(-c2oc(CNC(=O)c3cccnc3)nc2-c2ccc(F)cc2)n1	≤ 1000
CC(C)NC(=O)c1csc(-c2oc(CN3CCN(C(=O)c4ncc[nH]4)CC3)nc2-c2ccc(F)cc2)n1	≤ 1000
Cc1nc(-c2ccc(F)cc2)c(-c2nc(C(=O)NCc3ccc(C(F)(F)F)cc3)cs2)s1	≤ 1000
Cc1nc(-c2ccc(F)cc2)c(-c2nc(C(=O)NCc3cccc(F)c3)cs2)s1	≤ 1000
Cc1onc(-c2ccc(F)cc2F)c1-c1ccn(C(=O)NC(C)C)n1	≤ 1000
COc1cccc(CCNC(=O)c2csc(-c3sc(C)nc3-c3ccc(F)cc3)n2)c1	≤ 1000
CC(C)NC(=O)c1csc(-c2oc(CNC(=O)c3cnc[nH]3)nc2-c2ccc(F)cc2)n1	≤ 1000
CC(=O)Nc1ccc(NC(=O)c2csc(-c3sc(C)nc3-c3ccc(F)cc3)n2)cn1	≤ 1000
COc1ccc(C=CC(=O)NCc2nc(-c3ccc(F)cc3)c(-c3nc(C(=O)NC(C)C)cs3)o2)cc1O	≤ 1000
Cc1nc(-c2ccc(F)cc2)c(-c2nc(C(=O)NC(CO)C(C)C)cs2)s1 (stereo not given)	≤ 1000
CC(C)NC(=O)n1ccc(-c2c(-c3ccc(F)cc3)noc2CN2CCOCC2)n1	≤ 1000
CC(C)NC(=O)c1csc(-c2oc(CNC(=O)c3ccc(C(F)(F)F)cc3[N+](=O)[O-])nc2-c2ccc(F)cc2)n1	≤ 1000
Cc1nc(-c2ccc(F)cc2)c(-c2nc(C(=O)NCC3CCCCC3)cs2)s1	≤ 1000
CC(C)NC(=O)c1csc(-c2c(-c3ccc(F)cc3)n[nH]c2C2CCNCC2)n1	≤ 1000
CC(C)NC(=O)c1csc(-c2oc(CN3CCN(C(=O)c4ccccc4C=O)CC3)nc2-c2ccc(F)cc2)n1	≤ 1000
COCC(C)NC(=O)c1csc(-c2sc(C)nc2-c2ccc(F)cc2)n1 (stereo not given)	≤ 1000
O=C(NCc1ccncc1)c1csc(-c2c(-c3ccc(F)cc3)n[nH]c2C2CCNCC2)n1	≤ 1000
Cc1nc(-c2ccc(F)cc2)c(-c2nc(C(=O)NCC3CC3)cs2)s1	≤ 1000
CC(C)NC(=O)c1csc(-c2oc(CNC(=O)c3c(F)cccc3Cl)nc2-c2ccc(F)cc2)n1	≤ 1000
CC(C)NC(=O)c1csc(-c2[nH]c(CN3CCOCC3)nc2-c2ccc(F)cc2)n1	≤ 1000
